Values after ≈ are worked out from the molar mass of the structure shown. Read-outs that look alike come from different tables or passages of the source.
Experiments:
S. mutans = test: microbe, parasite or virus in culture; format: cell-based, Streptococcus mutans; conditions: for MIC50: Streptococcus mutans; for Selectivity: growth versus biofilm
Protocol: Cell viability of S. mutans, S. gordonii, S. sanguinis, Aggregatibacter actinomycetemcomitans and Actinomyces. […] The number of colony-forming units (CFU) per milliliter of each sample treated with selected compounds at different concentrations was enumerated after incubation for 24 h at 37° C. and compared to the values obtained from the DMSO control group. Overnight broth cultures were transferred by 1:50 dilutions into fresh THB medium and were allowed to grow until mid-exponential phase (OD470 nm 0.6) before transfer to 96-well plates containing desired concentration of the compound. After 16 h incubation, bacterial growth was measured at OD470, and normalized to the DMSO control (100%).
Cell viability of S. mutans and commensal S. gordonii and S. sanguinis. Effects of lead small molecules on cell viability were examined. The number of colony-forming units (CFU) per milliliter for each compound at different concentrations was determined after incubation for 24 h at 37° C. and compared to the values obtained from the DMSO control group.
Cell viability of S. mutans and commensal S. gordonii and S. sanguinis. […] DMSO served as a control group and provided a relative comparison for the number of colony-forming units (CFU) per milliliter for each compound at different concentrations was determined after incubation for 24 h at 37° C. The final concentration of DMSO used in the assays was 1%.

S. mutans biofilm = S. mutans biofilm formation and inhibition assay (96-well plates, crystal violet); format: cell-based, Streptococcus mutans; conditions: Streptococcus mutans
Protocol: Biofilm assays using 96-well flat-bottom polystyrene microtiter plates were performed to evaluate S. mutans biofilm formation at various conditions as described (Liu et al. (2011) Antimicrobial Agents and Chemotherapy 55, 2679; Zhang et al. (2015) International Journal of Antimicrobial Agents 46, 174), the disclosures of which are incorporated herein by reference in their entirety). Each assay was replicated three times. Compounds that inhibited biofilm formation at minimum concentration (MBIC) were determined by serial dilutions.
S. mutans biofilm formation and inhibition assays. […] Each assay was replicated three times. Minimum biofilm inhibitory concentration (MBIC) of compounds was determined by serial dilutions.
S. mutans biofilm formation and inhibition assays. Biofilm assays using 96-well flat-bottom polystyrene microtiter plates were performed to evaluate S. mutans biofilm formation at various conditions as described. Each assay was replicated […]. Compounds that inhibited 50% biofilm formation were determined by serial dilutions.
S. mutans biofilm formation and inhibition assays. A well-established protocol to study S. mutans biofilm formation in 96-well flat-bottom polystyrene microtiter plates was used, in triplicate (Mattos-Graner, R. O.; Napimoga, M. H.; Fukushima, K.; Duncan, M. J.; Smith, D. J., Comparative analysis of Gtf isozyme production and diversity in isolates of Streptococcus mutans with different biofilm growth phenotypes. Journal of clinical microbiology 2004, 42 (10), 4586-4592). The stock solutions were made up in 100% DMSO, and final concentration of DMSO used in the assays was 1%. Minimum biofilm inhibitory concentration (MBIC) of compounds was determined by serial dilutions.

[1] = Table 2, >300 = no inhibition up to 300 μM, read-out: Growth Inhibition MIC50
[2] = Table 1, >500 = no inhibition up to 500 μM, read-out: Biofilm Inhibition IC50
[3] = Table 2, read-out: Biofilm Inhibition IC50
[4] = Table 3, >300 = no inhibition up to 300 μM, NI = no inhibition up to 400 μM, read-out: Growth Inhibition MIC50
[5] = Table 3, read-out: Biofilm Inhibition IC50
[6] = Table 4, stilbenes, average of at least 5 measurements, NI = no inhibition, read-out: Growth MIC50
[7] = Table 8, stilbenes, average of at least 5 measurements, NI = no inhibition
[8] = Table 4, stilbenes, NI = no inhibition, read-out: Biofilm IC50
[9] = Table 8, stilbenes, NI = no inhibition, read-out: Biofilm IC50
[10] = Table 5, >500 = no inhibition up to 500 μM, read-out: Biofilm Inhibition IC50

**Q.** `O=C(Nc1ccccc1F)c1cc2cc([N+](=O)[O-])ccc2s1` [BM] was tested. Which MIC50 (S. mutans; [1]) did it give?
**A.** > 300 µM

**Q.** And the IC50 (S. mutans biofilm; [2])?
**A.** 162 µM

**Q.** What about the IC50 (S. mutans biofilm; [3]) of the same compound?
**A.** 162 µM

**Q.** For `O=C1/C(=C/c2ccccc2)Oc2ccccc21` [LC-I-206], which MIC50 (S. mutans; [4]) is on record?
**A.** > 300 µM

**Q.** What about the IC50 (S. mutans biofilm; [5]) of the same compound?
**A.** 320 ± 21 µM

**Q.** Which MIC50 (S. mutans; [4]) does the source give for `O=C1/C(=C/c2ccc(O)c(O)c2)Oc2ccccc21` [SN-II-118] here?
**A.** 263 ± 14 µM (≈ 66.8 µg/mL)

**Q.** What about the IC50 (S. mutans biofilm; [5]) of the same compound?
**A.** 280 ± 35 µM

**Q.** How did the MIC50 (S. mutans; [1]) turn out when `[N-]=[N+]=Nc1ccc2sc(C(=O)Nc3ccccc3C(N)=O)cc2c1` [SN-II-14] was run?
**A.** > 300 µM

**Q.** And the IC50 (S. mutans biofilm; [3])?
**A.** 57.2 µM

**Q.** For `NC(=O)c1ccccc1NC(=O)c1cnc2ccc(Br)cc2c1` [Compound 3J], which MIC50 (S. mutans; [1]) is on record?
**A.** > 300 µM

**Q.** What about the IC50 (S. mutans biofilm; [2]) of the same compound?
**A.** 106 µM

**Q.** What about the IC50 (S. mutans biofilm; [3]) of the same compound?
**A.** 106 µM

**Q.** Which results are given for `O=C(/C=C/c1ccc(O)cc1O)c1ccccc1O` [SN-II-32]?
**A.** MIC50 (S. mutans; [4]): 327 ± 24 µM (≈ 83.8 µg/mL); IC50 (S. mutans biofilm; [5]): 250 ± 16 µM

**Q.** `O=C(O)c1ccc(NC(=O)c2cc3ccccc3s2)cc1` [SN-I-272VH] was tested. Which MIC50 (S. mutans; [1]) did it give?
**A.** > 300 µM

**Q.** And the IC50 (S. mutans biofilm; [3])?
**A.** 180 µM

**Q.** What does the source list for `COc1ccc(/C=C/c2cc(O)cc(O[C@@H]3O[C@H](CO)[C@@H](O)[C@H](O)[C@H]3O)c2)cc1O` [Entry 12]?
**A.** MIC50 (S. mutans; [6]): 134 ± 11 µM (≈ 56.3 µg/mL); Selectivity (S. mutans; Table 4, stilbenes): 1.2; Growth MIC50 (S. mutans; [7]): 134 ± 11 µM; Selectivity (S. mutans; Table 8, stilbenes): 1.2; IC50 (S. mutans biofilm; [8]): 106 ± 11 µM; IC50 (S. mutans biofilm; [9]): 106 ± 11 µM

**Q.** `N=C(N)c1ccc(/C=C/c2ccc(C(=N)N)cc2O)cc1` [Entry 5] was tested. Which MIC50 (S. mutans; [6]) did it give?
**A.** 179 ± 23 µM (≈ 50.2 µg/mL)

**Q.** What about the “Growth MIC50” value (S. mutans; [7]) of the same compound?
**A.** 179 ± 23 µM

**Q.** What about the IC50 (S. mutans biofilm; [8]) of the same compound?
**A.** 104 ± 7 µM

**Q.** What about the IC50 (S. mutans biofilm; [9]) of the same compound?
**A.** 104 ± 7 µM

**Q.** What does the source list for `NC(=O)c1ccccc1OC(=O)c1cnc2ccccc2c1` [Compound 298F7]?
**A.** MIC50 (S. mutans; [1]): > 300 µM; IC50 (S. mutans biofilm; [3]): 30.4 µM

**Q.** Which results are given for `COc1cc(OC)c(OC)cc1/C=C1\Oc2ccccc2C1=O` [LC-I-205]?
**A.** MIC50 (S. mutans; [4]): > 300 µM; IC50 (S. mutans biofilm; [5]): 8.3 ± 1 µM

**Q.** Which IC50 (S. mutans biofilm; [2]) does the source give for `COC(=O)c1ccccc1NC(=O)c1cnc2ccccc2c1` [BF] here?
**A.** 446 µM

**Q.** For `NC(=O)c1ccc(NC(=O)c2cc3cc([N+](=O)[O-])ccc3s2)cc1` [BV], which IC50 (S. mutans biofilm; [2]) is on record?
**A.** 395 µM

**Q.** With `COC(=O)c1ccccc1NC(=O)c1cc2cc([N+](=O)[O-])ccc2s1` [Compound 3C] as the compound, how does the IC50 (S. mutans biofilm; [2]) read?
**A.** > 500 µM

**Q.** With `CC(C)c1ccccc1NC(=O)c1cc2cc([N+](=O)[O-])ccc2s1` [BJ] as the compound, how does the IC50 (S. mutans biofilm; [2]) read?
**A.** 262 µM

**Q.** With `O=C(Nc1ccccc1I)c1cnc2ccccc2c1` [BG] as the compound, how does the IC50 (S. mutans biofilm; [2]) read?
**A.** > 500 µM

**Q.** Which IC50 (S. mutans biofilm; [2]) does the source give for `NC(=O)c1ccc(NC(=O)c2ccc3ccccc3c2)cc1` [AW] here?
**A.** > 500 µM

**Q.** With `O=c1c(O)c(-c2ccc(O)cc2)oc2ccccc12` [SN-II-78] as the compound, how does the IC50 (S. mutans biofilm; [5]) read?
**A.** 200 ± 10 µM

**Q.** Which IC50 (S. mutans biofilm; [2]) does the source give for `COc1ccc2[nH]c(C(=O)Nc3ccc(C(N)=O)cc3)cc2c1` [BY] here?
**A.** > 500 µM

**Q.** For `O=C(Nc1ccccc1)c1cnc2ccccc2c1` [Compound 3L], which IC50 (S. mutans biofilm; [2]) is on record?
**A.** > 500 µM

**Q.** And the IC50 (S. mutans biofilm; [10])?
**A.** > 500 µM

**Q.** `NC(=O)c1ccccc1NC(=O)c1ccc(-c2ccccc2)cc1` [AU] was tested. Which IC50 (S. mutans biofilm; [2]) did it give?
**A.** > 500 µM

**Q.** How did the IC50 (S. mutans biofilm; [2]) turn out when `NC(=O)c1ccccc1OC(=O)c1cc2cc([N+](=O)[O-])ccc2o1` [BA] was run?
**A.** 279 µM

**Q.** With `NC(=O)c1ccccc1NC(=O)c1cccc2ccccc12` [BQ] as the compound, how does the IC50 (S. mutans biofilm; [2]) read?
**A.** 446 µM

**Q.** With `NC(=O)c1ccccc1NC(=O)c1ccc2ccccc2c1` [AS] as the compound, how does the IC50 (S. mutans biofilm; [2]) read?
**A.** 84.1 µM

**Q.** Which IC50 (S. mutans biofilm; [2]) does the source give for `NC(=O)c1ccc(NC(=O)c2cc3cc([N+](=O)[O-])ccc3o2)cc1` [AG] here?
**A.** 239 µM

**Q.** Which IC50 (S. mutans biofilm; [2]) does the source give for `CC(C)c1ccccc1NC(=O)c1cnc2ccccc2c1` [BK] here?
**A.** > 500 µM

**Q.** How did the IC50 (S. mutans biofilm; [2]) turn out when `NC(=O)c1ccccc1OC(=O)c1cc2ccccc2s1` [AF] was run?
**A.** > 500 µM

**Q.** Which IC50 (S. mutans biofilm; [2]) does the source give for `NC(=O)c1ccccc1NC(=O)c1ccc2ccccc2n1` [AY] here?
**A.** > 500 µM

**Q.** Which results are given for `O=C(Nc1ccccc1)c1cc2cc([N+](=O)[O-])ccc2s1` [Compound 3D]?
**A.** IC50 (S. mutans biofilm; [2]): > 500 µM; IC50 (S. mutans biofilm; [10]): > 500 µM

— patent publication US11866416B2, “Streptococcus mutans glucosyl transferase inhibitors for dental caries therapy” (UAB Research Foundation, priority 2018, dated 2024)
